Assay [1] relates to H358 cells (ATCC CRL-5807). Description: Cell viability assay (CellTiter-Glo), H358 cells. The assay is classed as cell-based. To be noted: Homo sapiens, NCI-H358, 48 h incubation, first value of the cell, read-out: Cell Viability (μM) H358 (concentration that decreases cell viability by 50%). Here is the method:
(§1) Cells (A549 ATCC CCL-185) are cultured in Dulbecco's Modified Eagle's Medium plus 10% foetal calf serum and 2 mM L-glutamine at 37° C., 5% CO2. Cells are plated onto white clear bottom 96-well plates (5000 cells/well in 200 μl media) and left to adhere overnight at 37° C., 5% CO2. Next day, test compound (1 μl at 200× concentration in 100% DMSO) is added to give final test compound concentration 1× in 0.5% DMSO. After 48 h of incubation at 37° C., 5% CO2, 20 μl CellTiter-Glo reagent (Promega G7572) is added into each well. Plates are incubated at room temperature with shaking for 30 min and then luminescence is read using a PheraStar plate reader. The concentration of compounds that decrease cell viability by 50% is calculated from dose response curves generated using Dotmatics data analysis software.
In the H358 cell assay, cells (ATCC CRL-5807) are cultured in RPM-1640 medium plus 10% foetal calf serum and 2 mM L-glutamine at 37° C., 5% CO2.
(ATP-based viability assays read luminescence as a measure of living cells.)

The subject of assay [2] is DLD1 cells (ATCC CCL-221). Description: Cell viability assay (CellTiter-Glo), DLD1 cells. The assay is classed as cell-based. To be noted: Homo sapiens, DLD-1 cells, 48 h incubation, second value of the cell, read-out: Cell Viability (μM) DLD-1 (concentration that decreases cell viability by 50%). Here is the method: as §1
In the DLD1 cell assay, cells (ATCC CCL-221) are cultured in RPMI-1640 medium plus 10% foetal calf serum and 2 mM L-glutamine at 37° C., 5% CO2.

For assay [3], the target named is T1, GST-human KRas166 (G12V) GPPNHP (Homo sapiens, UniProt P01116, G12V).
T1 construct: made in house; host or cells: E. coli C41(DE3)
In words: KRas small-molecule screening by SPR (BIACORE T200). The assay is classed as binding. The conditions noted are these: compound at final concentration of 100 uM; immobilised GST-KRAS166 (G12V) GPPNHP, GST reference channel. The procedure: For SPR assays pGEX-KRAS(G12V) plasmid was transformed into E. coli C41(DE3). Bacterial cells were cultured at 37° C. to an OD600 of 0.6 and induced with IPTG (final 0.1 mM) at 18° C. overnight. The GST fusion proteins were extracted from bacteria pellets after cell disruption in 140 mM NaCl, 2.7 mM KCl, […], 1.8 mM KH2PO4, 1 mM EDTA, 2 mM MgCl2 pH 7.4 and purified by glutathione-sepharose column chromatography (GE Healthcare), eluting with 50 mM Tris-HCl pH8.0, 10 mM reduced glutathione, 1 mM DTT, 2 mM MgC2. The eluted proteins were dialysed against 50 mM Tris-HCl pH8.0, 1 mM DTT, 2 mM MgCl2 and concentrated to 10 mg/ml using a Biomax-30 […]-15 centrifugal filter device (Millipore). Purified KRAS protein was loaded with GPPNHP as described elsewhere (Pacold et al., 2000). Loaded protein was then purified by gel filtration on a HiLoad Superdex-75 HR column (GE Healthcare) in 1×PBS pH7.4, 5 mM MgCl2 and concentrated for storage.
To a previously immobilized CM5 chip (GE Healthcare BR-1005-30) with anti GST antibody via amine coupling method, GST in channel 1 and GST-human KRas166 (G12V) GPPNHP in channel 2 were immobilised. GST was immobilised between 2,000 and 5,000 Response units. KRAS166 (G12V) was immobilized between 10,000 to 15,000 Response Units.
In a 96 well plate, compounds were diluted in […], 5 mM MgCl2 and 5% DMSO Buffer to a final concentration of 100 uM. DCAI was used as positive control. Experiment also included a solvent correction curve for 5% DMSO. Screening and evaluation of the protein immobilization and the compounds screening was done accordingly to the BIACORE T200 control and evaluation software.
Protein immobilisation: 10,000 RU; average fragment 300 Da in size. Rmax=(MWA/MWL)×RL×SM MWA is the molecular weight of the analyte in Da MWL is the molecular weight of the ligand in Da RL is the immobilization level in RU SM is the molar stoichiometry (assume 1:1) Rmax=300/47,500×10,000×1 Rmax=63 RU. Cell Viability Assay protocols

The structures appear in SMILES notation. Bounds are passed on as bounds.

Consider `CN1CCN(Cc2ccc(C(=O)NC[C@@H]3COc4ccc(OCCc5ccccc5)cc4O3)o2)CC1` [Example 23, 5-(4-Methyl-piperazin-1-ylmethyl)-furan-2-carboxylic acid ((R)-7-phenethyloxy-2,3-dihydro-benzo[1,4]dioxin-2-ylmethyl)-amide], for which the IC50 is 35 µM in assay [1] and 3.5 µM in assay [2]. The “SPR Response Units” value in assay [3] was 86 Response Units.
Consider `O=C(NCc1ccc(CN2CCNCC2)cc1)C1COc2ccc(OCc3ccccc3)cc2O1` (stereo not drawn) [Example 74, 7-Benzyloxy-2,3-dihydro-benzo[1,4]dioxine-2-carboxylic acid 4-piperazin-1-ylmethyl-benzylamide], for which the IC50 turned out to be 21.3 µM in assay [1] and 16.7 µM in assay [2]. The “SPR Response Units” value in assay [3] was 115 Response Units.
Taken in the same sequence, the figures for `O=C1CCCN1CC(NC[C@@H]1COc2ccc(OCc3ccccc3)cc2O1)c1ccccc1` (stereo partly drawn) [Example 47, 1-{2-[((R)-7-Benzyloxy-2,3-dihydro-benzo[1,4]dioxin-2-ylmethyl)-amino]-2-phenyl-ethyl}-pyrrolidin-2-one] were 35 µM, 15.7 µM and 48 Response Units.
Taken in the same sequence, the figures for `CC(C)(C)OC(=O)NCc1ccc(CN(C[C@@H]2COc3ccc(OCc4ccccc4)cc3O2)C(=O)c2ncco2)cc1` [Example 41, (4-{[((R)-7-Benzyloxy-2,3-dihydro-benzo[1,4]dioxin-2-ylmethyl)-(oxazole-2-carbonyl)-amino]-methyl}-benzyl)-carbamic acid tert-butyl ester] were 74 µM, 16 µM and 7 Response Units.
On to `Cc1ccc(COc2ccc3c(c2)O[C@H](CNC(=O)C2CCN(C)CC2)CO3)cc1` [Example 29, 1-Methyl-piperidine-4-carboxylic acid [(R)-7-(4-methyl-benzyloxy)-2,3-dihydro-benzo[1,4]dioxin-2-ylmethyl]-amide], for which the IC50 in assay [1] was 12.5 µM; in assay [2] it was 6.8 µM. Further, the “SPR Response Units” value in assay [3] amounted to 37 Response Units.
On to `O=C1CN(C2CCNCC2)C(=O)N1C[C@@H]1COc2ccc(OCc3ccccc3)cc2O1` [Example 79, 3-((R)-7-Benzyloxy-2,3-dihydro-benzo[1,4]dioxin-2-ylmethyl)-1-piperidin-4-yl-imidazolidine-2,4-dione], for which the IC50 amounted to 50 µM in assay [1] and 9 µM in assay [2]. The “SPR Response Units” value in assay [3] is reported as 72 Response Units.
For the compound `CN(C)CC(=O)N[C@H]1CC[C@@H](N(Cc2ccn[nH]2)C[C@@H]2COc3ccc(OCc4ccccc4)cc3O2)CC1` [Example 51, N-{4-[((R)-7-Benzyloxy-2,3-dihydro-benzo[1,4]dioxin-2-ylmethyl)-(2H-pyrazol-3-ylmethyl)-amino]-cyclohexyl}-2-dimethylamino-acetamide], the IC50 in assay [1] turned out to be 14 µM; in assay [2] it was 7.3 µM. Further, the “SPR Response Units” value in assay [3] was 166 Response Units.
Turning to `c1ccc(COc2ccc3c(c2)O[C@H](CNCC2CCCNC2)CO3)cc1` (stereo partly drawn) [Example 58, ((R)-7-Benzyloxy-2,3-dihydro-benzo[1,4]dioxin-2-ylmethyl)-piperidin-3-ylmethyl-amine], the IC50 in assay [1] was found to be 14.7 µM; in assay [2], 13.8 µM.
For `c1ccc(COc2ccc3c(c2)O[C@H](CNCC2CCOCC2)CO3)cc1` [Example 33, ((R)-7-Benzyloxy-2,3-dihydro-benzo[1,4]dioxin-2-ylmethyl)-(tetrahydro-pyran-4-ylmethyl)-amine], the IC50 is > 100 µM in assay [1] and 18 µM in assay [2].
Taken in the same sequence, the figures for `CN1CCN(c2cccc(CNC[C@@H]3COc4ccc(OCc5ccccc5)cc4O3)c2)CC1` [Example 53, ((R)-7-Benzyloxy-2,3-dihydro-benzo[1,4]dioxin-2-ylmethyl)-[3-(4-methyl-piperazin-1-yl)-benzyl]-amine] were 8 µM and 5 µM.
Consider `NC[C@@H]1COc2ccc(OCc3ccccc3)cc2O1` [Example 86, C—((R)-7-Benzyloxy-2,3-dihydro-benzo[1,4]dioxin-2-yl)-methylamine], for which the “SPR Response Units” value in assay [3] came out at 28 Response Units.
Still for that read-out and setting: the value for `CN(C)CCC(=O)NC[C@@H]1COc2ccc(OCc3ccccc3)cc2O1` [Example 6, N-((R)-7-Benzyloxy-2,3-dihydro-benzo[1,4]dioxin-2-ylmethyl)-3-dimethylamino-propionamide] was 21 Response Units.
For `CN1CCN(Cc2cccc(C(=O)NC[C@@H]3COc4ccc(OCc5ccccc5)cc4O3)c2)CC1` [Example 7, N-((R)-7-Benzyloxy-2,3-dihydro-benzo[1,4]dioxin-2-ylmethyl)-3-(4-methyl-piperazin-1-ylmethyl)-benzamide], the IC50 was found to be 19.2 µM in assay [1] and 10.5 µM in assay [2].
Regarding `O=C(C1COc2ccc(OCc3ccccc3)cc2O1)N1CCN(Cc2ccncc2)CC1` (stereo not drawn) [Example 63, (7-Benzyloxy-2,3-dihydro-benzo[1,4]dioxin-2-yl)-(4-pyridin-4-ylmethyl-piperazin-1-yl)-methanone], the “SPR Response Units” value in assay [3] came out at 79 Response Units.
For the compound `O=C(NC[C@@H]1COc2ccc(OCc3ccccc3)cc2O1)C1CCNCC1` [Example 17, Piperidine-4-carboxylic acid ((R)-7-benzyloxy-2,3-dihydro-benzo[1,4]dioxin-2-ylmethyl)-amide], the “SPR Response Units” value in assay [3] is given as 22 Response Units.
For `NC(=O)CN1CCC(C(=O)NC[C@@H]2COc3ccc(OCc4ccccc4)cc3O2)CC1` [Example 14, 1-Carbamoylmethyl-piperidine-4-carboxylic acid ((R)-7-benzyloxy-2,3-dihydro-benzo[1,4]dioxin-2-ylmethyl)-amide], in assay [3], the “SPR Response Units” value was determined as 24 Response Units.
Still for that read-out and setting: for `CNC(=O)C(NC[C@@H]1COc2ccc(OCc3ccccc3)cc2O1)c1ccccc1` (stereo partly drawn) [Example 49, 2-[((R)-7-Benzyloxy-2,3-dihydro-benzo[1,4]dioxin-2-ylmethyl)-amino]-N-methyl-2-phenyl-acetamide] the value was 67 Response Units.
For the compound `O=C(NC[C@@H]1COc2ccc(OCc3cccnc3)cc2O1)c1ncco1` [Example 19, Oxazole-2-carboxylic acid [(R)-7-(pyridin-3-ylmethoxy)-2,3-dihydro-benzo[1,4]dioxin-2-ylmethyl]-amide], the “SPR Response Units” value in assay [3] turned out to be 40 Response Units.
As for `CC(=O)N1CCC(NC[C@@H]2COc3ccc(OCc4ccccc4)cc3O2)CC1` [Example 34, 1-{4-[((R)-7-Benzyloxy-2,3-dihydro-benzo[1,4]dioxin-2-ylmethyl)-amino]-piperidin-1-yl}-ethanone], the “SPR Response Units” value in assay [3] came to 23 Response Units.
Same read-out and setting: for `CN1CCC(NC(=O)NC[C@@H]2COc3ccc(OCc4ccccc4)cc3O2)CC1` [Example 80, 1-(7-benzyloxy-2,3-dihydro-benzo[1,4]dioxin-2-ylmethyl)-3-(1-methyl-piperidin-4-yl)-urea] the value was 93 Response Units; for `O=C1CC(CNC(=O)C2COc3ccc(OCc4ccccc4)cc3O2)CCN1` (stereo not drawn) [Example 71, 7-Benzyloxy-2,3-dihydro-benzo[1,4]dioxine-2-carboxylic acid (2-oxo-piperidin-4-ylmethyl)-amide], 7 Response Units.

(Values after patent US11724999B2, “Inhibitors of RAS-effector protein interactions” (Oxford University Innovation Limited, priority 2018, dated 2023).)
